Measurements: patent publication US11542508B2, “Isolated polynucleotides and polypeptides and methods of using same for expressing an expression product of interest” (priority 2016, dated 2023)
“Also recorded” adds a separate entry of the source.

Tests used:
[1] = tested on: phi3T; experiment: Growth dynamics of phage-infected cultures (phi3T infection of B. subtilis 168); type: cell-based; conditions: B. subtilis 168 infected by phi3T at MOI=0.1, LB supplemented with synthesized peptide
Description: Specifically, overnight cultures of B. subtilis strain 168 were diluted 1:50 in LB media supplemented with 0.1 mM MnCl2 and 5 mM MgCl2, and incubated at 37° C. with shaking until reaching optical density (O.D) 600 nm=0.5. Phages (phi29, phi105, rho14 or phi3T) were added to the bacterial culture at MOI=1 and incubated for 3 hours. The media were centrifuged at 4000 rpm for 10 minutes at 4° C. and the supernatant was filtered with 0.2 μm filer (GE Healthcare Life Sciences, Whatman, CAT #10462200). Phages and large molecules were further filtered out from the media by using Amicon Ultra centrifugal filters at a cutoff of 3,000 NMWL (3 kDa) (Milipore, CAT #UFC900324). A plaque assay was performed in order to verify that no phages were left in the medium.
7.5 mg (per reaction) of Proteinase K-Agarose from Tritirachium album (Sigma, CAT #P9290) were washed twice with 750 μl of sterile water and then resuspended with 750 μl of LB supplemented with 0.1 mM MnCl2 and 5 mM MgCl2. Following, the tubes were centrifuged again and the supernatant was discarded. 1.5 ml of phi3T-derived conditioned medium or control medium was added to a tube containing the washed proteinase K. The media were incubated for 2 hours at 37° C. with the proteinase K. The media were centrifuged and the supernatants were collected for the infection assay.
(§1) Overnight cultures of bacteria were diluted 1:100 in LB media and incubated at 37° C. with shaking until reaching O.D 600 nm=0.1. The bacterial culture was centrifuged at 4000 rpm for 10 minutes at room temperature. The supernatant was discarded and the pellet was resuspended in LB medium supplemented with 0.1 mM MnCl2 and 5 mM MgCl2 at 10% of the initial volume. The concentrated bacterial culture was added to conditioned medium or medium supplemented with synthesized arbitrium peptide in a ratio of 1:9 (bacteria to medium) and incubated for 1 hour at room temperature. Following, the culture was infected with phages at MOI=0.1. Optical density measurements at a wavelength of 600 nm were taken using a TECAN Infinite 200 plate reader in a 96-wells plate.

[2] = target: T1, phi3T AimR receptor (Bacillus phage phi3T, UniProt P0DOE3); type: binding; conditions: AimR 200 nM, peptide 9-4000 nM
T1 construct: made in house; host or cells: E. coli BL21(DE3), pET28a
T1 sequence (P0DOE3 whole entry, looked up): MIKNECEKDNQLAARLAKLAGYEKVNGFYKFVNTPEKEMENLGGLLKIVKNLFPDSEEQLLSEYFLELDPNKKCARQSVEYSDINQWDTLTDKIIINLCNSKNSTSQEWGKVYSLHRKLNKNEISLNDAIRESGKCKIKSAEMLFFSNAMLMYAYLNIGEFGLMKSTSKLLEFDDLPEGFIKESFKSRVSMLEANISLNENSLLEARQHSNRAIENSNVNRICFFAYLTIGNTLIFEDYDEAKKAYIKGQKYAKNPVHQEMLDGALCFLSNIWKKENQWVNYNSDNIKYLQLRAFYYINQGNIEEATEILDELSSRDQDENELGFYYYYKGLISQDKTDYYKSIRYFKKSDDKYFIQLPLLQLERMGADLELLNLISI
Description: Two-step purified 6×His-tagged AimR stored in Tris/NaCl buffer (50 mM Tris pH 8.0, 150 mM NaCl, 2 mM TCEP) at −80° C. was thawed on ice and centrifuged at 21,000 g for 10 minutes at 4° C. prior to analysis. Peptides [SAIRGA (SEQ ID NO: 269) and GMPRGA (SEQ ID NO: 271)] were solubilized in 50 mM Tris-HCl pH 8.0, 150 mM NaCl to a final concentration of 100 μM. AimR was diluted to 200 nM and was incubated with 16 different peptide concentrations varying between 9-4000 nM, which were prepared in Tris/NaCl buffer containing 0.1% [v/v] Pluronic acid (NanoTemper). Roughly 3 μl were loaded into NT.LabelFree Zero-Background Premium Coated Capillaries (NanoTemper) and inserted into a Monolith NT.LabelFree device (NanoTemper). MST experiments were performed at 60% MST power (infra-red laser) and 20% LED power at 23° C. using the Monolith NT.LabelFree instrument (Nanotemper). Ratios between normalized initial fluorescence and post-temperature-jump and thermophoresis were calculated and averaged from 3 independent runs (runs were incubated for 20 minutes at room temperature before the measurement). A plot of fluorescence ratios versus peptide concentration was used to assess the binding capacity of the phage protein and its cognate peptide ligand.

[3] = tested on: spBeta; experiment: Growth dynamics of phage-infected cultures (spBeta infection of B. subtilis BEST7003); type: cell-based; conditions: B. subtilis BEST7003 infected by spBeta at MOI=0.1, LB supplemented with synthesized peptide
Description: as §1

[4] = target: T2, AimR (Bacillus phage phi3T, UniProt P0DOE3); experiment: Analytical gel filtration of purified AimR (oligomeric state); conditions: AimR:SAIRGA 1:2, AimR:GMPRGA 1:1 molar ratio
T2 construct: made in house; host or cells: E. coli BL21(DE3), pET28a
T2 sequence (P0DOE3 whole entry, looked up): T1 sequence (P0DOE3 whole entry, looked up)
Description: Following, AimR was expressed in E. coli BL21(DE3) cells with a C-terminal 6× His-tag. Expression was performed at 15° C. for about ˜18 hours using 200 μM IPTG (Isopropyl β-D-1-thiogalactopyranoside) as an inducer. The cells pellet was resuspended in lysis buffer [50 mM Tris pH 8, 0.3M NaCl, 20 mM Imidazole, 2 mM DTT, 0.2 mg/ml Lysozyme, 1 μg/ml DNAse, protease inhibitor cocktail (Calbiochem)], disrupted by a cell disrupter at 4° C. and clarified at 15,000 g for 30 minutes. The clarified lysate was loaded onto a HisTrap_FF_5 ml column (GE Healthcare) and washed with buffer containing 50 mM Tris pH 8, 0.3 M NaCl, 20 mM imidazole and 2 mM DTT. AimR was eluted from the column in one step with the same buffer containing 0.5 M imidazole. Fractions containing AimR were pooled and injected to a size exclusion column (HiLoad_16/60_Superdex_200_prepgrade,GE_Healthcare) equilibrated with 20 mM Tris pH 8, 0.3 M NaCl, 2 mM TCEP. Fractions containing pure AimR were pooled and flash frozen in aliquots using liquid nitrogen.
Pure AimR was injected to an analytical gel filtration column (Superdex_200_Increase_10/30 GL, GE Healthcare) equilibrated with buffer containing 20 mM Tris pH 8, 0.3 M NaCl, 2 mM TCEP. […]

PhrC: a known quorum sensing peptide of B. subtilis (ERGMT)
effect on the phage infection dynamics (culture lysis, growth curve) [1]: neither observed

GMPRGA: predicted mature AimP-derived arbitrium peptide of spBeta
specific binding to the phi3T AimR receptor (MST) [2]: did not show specific binding
effect on the phage infection dynamics (culture lysis, growth curve) [1]: did not affect the lysogeny profile of phi3T
effect on lysogeny / infection dynamics of spBeta [3]: promoted lysogeny of spBeta
AimR oligomeric state (migration in gel filtration column) [4]: did not lead to a change in the AimR oligomeric state

AIRGA: shorter, 5 amino acids version of the SAIRGA peptide
effect on the phage infection dynamics (culture lysis, growth curve) [1]: neither observed; also recorded: do not guide lysogeny

SAIRG: shorter, 5 amino acids version of the SAIRGA peptide
effect on the phage infection dynamics (culture lysis, growth curve) [1]: neither observed; also recorded: do not guide lysogeny
